In test [1] the target is T1, E2C-I159C/H547A (C90A/C306A/I159C/H547A) (Homo sapiens, UniProt Q01959, C306A/C90A/H547A/I159C).
T1 construct: expressed in transfected cells; host or cells: HEK293 cells, transient, pcDNA3.1+
T1 sequence (Q01959 1-620 C90A/I159C/C306A/H547A): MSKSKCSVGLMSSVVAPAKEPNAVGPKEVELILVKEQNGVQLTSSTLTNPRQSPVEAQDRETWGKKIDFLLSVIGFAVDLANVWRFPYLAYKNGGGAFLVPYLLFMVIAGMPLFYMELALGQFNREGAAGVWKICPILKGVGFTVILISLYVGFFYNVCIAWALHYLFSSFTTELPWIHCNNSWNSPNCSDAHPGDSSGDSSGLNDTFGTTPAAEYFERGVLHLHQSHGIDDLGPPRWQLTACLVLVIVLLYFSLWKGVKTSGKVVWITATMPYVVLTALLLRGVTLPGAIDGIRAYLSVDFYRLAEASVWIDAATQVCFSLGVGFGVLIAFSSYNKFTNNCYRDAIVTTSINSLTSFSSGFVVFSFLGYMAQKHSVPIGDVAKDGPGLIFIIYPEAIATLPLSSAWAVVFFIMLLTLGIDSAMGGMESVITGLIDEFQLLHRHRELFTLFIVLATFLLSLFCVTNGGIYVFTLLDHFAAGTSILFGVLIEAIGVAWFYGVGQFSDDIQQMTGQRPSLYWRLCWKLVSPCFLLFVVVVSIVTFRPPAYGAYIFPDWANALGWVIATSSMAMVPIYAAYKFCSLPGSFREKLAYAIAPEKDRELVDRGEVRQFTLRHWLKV
The test can be described thus: MTSET assay, [3H]DA uptake in HEK293 cells. Format: cell-based. As to conditions: 1 mM MTSET. From the text: (§1) All mutants on hDAT were generated based on the predictions made using our computational model, as described previously using site-directed mutagenesis based on the wild-type hDAT (WT hDAT) sequence (NCBI, cDNA clone MGC: 164,608 IMAGE: 40,146,999) (Quizon et al. [2016]). The combination of hDAT mutations on Asp206 and His547 (Aspartic acid 206 to leucine and histidine 547 to alanine, D206L/H547A) were predicted to eliminate two hydrogen bonds between Tat and hDAT. In addition, the combination of mutations on Tyr88, Asp206, and His547 (tyrosine88 to phenylalanine and aspartic acid 206 to leucine and histidine 547 to alanine, Y88F/D206L/H547A) were predicted to eliminate three hydrogen bonds from the Tat-hDAT complex. Two extracellular cysteine90 and cysteine306 residues on WT hDAT were mutated to alanine as E2C hDAT (C90A/C306A hDAT), rendering the E2C hDAT MTSET-insensitive background (Pedersen et al. [2014]). A triple mutation of the two cysteine90 and 306 residues to alanine and […] to cysteine on WT hDAT was generated as E2C-I159C hDAT (C90A/C306A/I159C) for MTSET-sensitive construct. A combination of C90A/C306A/H547A was generated as E2C/H547A hDAT for MTSET-insensitive control for H547A. To determine whether H547A-enhanced DA transport is mediated by changing transporter conformation, two combinations of C90A/C306A/I159C/H547A and C90A/C306A/I159A/H547A were generated as E2C-I159C/H547A and E2C-I159A/H547A for positive and negative controls for MTSET sensitive background, respectively. Synthetic cDNA encoding hDAT subcloned into pcDNA3.1+ (provided by Dr. Haley E Melikian, University of Massachusetts) was used as a template to generate mutants using site-directed mutagenesis performed by GENEWIZ (South Plainfield, NJ). DNA sequencing was also performed by GENEWIZ to confirm the sequences of the mutant constructs. Plasmid DNA were propagated and purified using the Qiagen Hi-speed maxi prep plasmid DNA isolation kit (Qiagen, Valencia, CA, USA).
(§2) This assay was performed based on the previous report with minor modifications (Loland et al. [2004], [2008]). First, we generated five WT hDAT based plasmid construct for MTSET-insensitive or sensitive background as we described above. HEK293 cells were grown in poly-d-lysine coated plates at a density of 1 × 10^5 cells/cm^2 were transfected with different E2C- associated hDAT background constructs: E2C hDAT, E2C-I159C hDAT, E2C/H547A hDAT, E2C-I159C/H547A or E2C-I159A/H547A. Twenty-four hours after the transfection, cells were washed twice with 1× KRH buffer, and preincubated with or without the presence of 10 µM nomifensine (for non-specific uptake) and MTSET for 10 min at room temperature. MTSET at 1 mM final concentration was chosen based on a pilot study on optimizing MTSET concentrations (0.1, 0.5 or 1.0 mM). […] Because MTSET is easily hydrolyzed in solution, the amount needed for a 10 × stock was weighed out and dissolved in 1 × KRH buffer just right before adding to the assigned wells, for a 10-fold dilution (final concentration of 1 mM in final volume of 250 µl). […] Cells were immediately washed twice with ice-cold 1 × KRH buffer to terminate the reaction and were lysed rapidly with the addition of 1 % SDS. Cell lysates were collected after incubation for 1 h at room temperature and radioactivity was determined the next day.

The target in test [2] is T2, E2C-I159A/H547A (C90A/C306A/I159A/H547A) (Homo sapiens, UniProt Q01959, C306A/C90A/H547A/I159A).
T2 construct: expressed in transfected cells; host or cells: HEK293 cells, transient, pcDNA3.1+
T2 sequence (Q01959 1-620 C90A/I159A/C306A/H547A): T1 sequence (Q01959 1-620 C90A/I159C/C306A/H547A) with C159A
The test can be described thus: MTSET assay, [3H]DA uptake in HEK293 cells. It counts as cell-based. As to conditions: 1 mM MTSET.
Source text: as §1, §2

The text below walks through data of PMC8329121 (Journal of Neuroimmune Pharmacology, 2021).

Changes are numbered by the printed parent chain.

On to `C[N+](C)(C)CCSS(C)(=O)=O` [MTSET, [2-(trimethylammonium)ethyl]-methanethiosulfonate], for which the “further inhibition of [3H]DA uptake compared to E2C-I159C” value in test [1] (Fig. 8b) worked out at 34%. Moreover, the figures for the “inhibition of DA uptake relative to E2C” value in test [1] (Fig. 8b) and in test [2] (Fig. 8b) were 65% and 31%, respectively. The “[3H]DA uptake in the presence of MTSET” value in test [1] (HEK293, Fig. 8b) is 30.4 ± 3.52; in test [2] (HEK293, Fig. 8b), 59.7 ± 5.7.
